Measurements: article PMC10135569, “Does Enhanced Structural Maturity of hiPSC-Cardiomyocytes Better for the Detection of Drug-Induced Cardiotoxicity?” (Biomolecules, 2023)

Legend:
[1] = tested on: hiPSC-CMs (iCell2 Cardiomyocytes) 2D monolayers; experiment: Contractility measurements using video imaging (ContractilityTool / MUSCLEMOTION); assay type: cell-based, human; conditions: for activity at 0.01 µM / activity at 0.03 µM / activity at 0.1 µM / activity at 0.3 µM: Homo sapiens, Cardiomyocyte, 0.5 h, 30 min, delta over DMSO 0.1%
In short: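 Monolayers on fibronectin or Matrix Plus coating, tested on days 5–6 in serum-free medium. Four concentrations, one per well, n = 8, with vehicle control.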

[2] = tested on: hiPSC-CMs (iCell2 Cardiomyocytes) 2D monolayers; experiment: Membrane potential (action potential) recordings with FluoVolt voltage-sensitive dye on the CellOPTIQ platform; assay type: cell-based, human; conditions: for activity at 0.01 µM / activity at 0.03 µM / activity at 0.1 µM / activity at 0.3 µM: Homo sapiens, Cardiomyocyte, 0.5 h, 30 min, delta over DMSO 0.1%
In short: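 iCell2 hiPSC-CM monolayers (50,000 cells/well on fibronectin or Matrix Plus, days 5–6) were loaded with FluoVolt (1:1000, 20 min, 37 °C) and imaged at 37 °C with 470 nm excitation and 510–560 nm emission sampled at 10 kHz. Spontaneous action potentials were recorded for 10 s at baseline and 30 min after drug, with one of four concentrations per well (n = 8).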

[3] = 300 nM, both 2D systems, positive control
[4] = FM monolayer, read-out: CtAmp (%DD)
[5] = FM monolayer, read-out: CtD50 (%DD)
[6] = MM monolayer, read-out: CtAmp (%DD)
[7] = MM monolayer, read-out: CtD50 (%DD)
[8] = FM monolayer, read-out: APD30 (%DD)
[9] = FM monolayer, read-out: APD90 (%DD)
[10] = FM monolayer, read-out: CL (%DD)
[11] = FM monolayer, read-out: Trise (%DD)
[12] = MM monolayer, read-out: APD30 (%DD)
[13] = MM monolayer, read-out: APD90 (%DD)
[14] = MM monolayer, read-out: CL (%DD)
[15] = MM monolayer, read-out: Trise (%DD)

CC(C)NCC(O)c1ccc(O)c(O)c1 (stereo not shown) [Isoprenaline]
effect on contraction duration [1, 3]: decreased
activity at 0.01 µM [1, 4]: 94 ± 5.2%
activity at 0.01 µM [1, 5]: 94 ± 1%
activity at 0.03 µM [1, 4]: 90 ± 8.3%
activity at 0.03 µM [1, 5]: 88 ± 4.6%
activity at 0.1 µM [1, 4]: 125 ± 17.9%
activity at 0.1 µM [1, 5]: 76 ± 2.8%
activity at 0.3 µM [1, 4]: 68 ± 8.5%
activity at 0.3 µM [1, 5]: 58 ± 1.6%
activity at 0.01 µM [1, 6]: 123 ± 14.4%
activity at 0.01 µM [1, 7]: 96 ± 2.3%
activity at 0.03 µM [1, 6]: 112 ± 11.7%
activity at 0.03 µM [1, 7]: 88 ± 2.3%
activity at 0.1 µM [1, 6]: 121 ± 16.1%
activity at 0.1 µM [1, 7]: 68 ± 2.7%
activity at 0.3 µM [1, 6]: 105 ± 14.9%
activity at 0.3 µM [1, 7]: 57 ± 1.8%
effect on APD90 [2, 3]: decreased
effect on spontaneous beat rate [2, 3]: increased
activity at 0.01 µM [2, 8]: 97 ± 2%
activity at 0.01 µM [2, 9]: 94 ± 1.9%
activity at 0.01 µM [2, 10]: 90 ± 1.4%
activity at 0.01 µM [2, 11]: 80 ± 7.3%
activity at 0.03 µM [2, 8]: 85 ± 1.7%
activity at 0.03 µM [2, 9]: 77 ± 0.6%
activity at 0.03 µM [2, 10]: 74 ± 0.6%
activity at 0.03 µM [2, 11]: 97 ± 8.6%
activity at 0.1 µM [2, 8]: 68 ± 0.8%
activity at 0.1 µM [2, 9]: 60 ± 1%
activity at 0.1 µM [2, 10]: 56 ± 0.6%
activity at 0.1 µM [2, 11]: 106 ± 4.5%
activity at 0.3 µM [2, 8]: 62 ± 1%
activity at 0.3 µM [2, 9]: 52 ± 0.5%
activity at 0.3 µM [2, 10]: 49 ± 0.6%
activity at 0.3 µM [2, 11]: 106 ± 8.1%
activity at 0.01 µM [2, 12]: 92 ± 0.8%
activity at 0.01 µM [2, 13]: 96 ± 0.8%
activity at 0.01 µM [2, 14]: 90 ± 0.9%
activity at 0.01 µM [2, 15]: 146 ± 13.3%
activity at 0.03 µM [2, 12]: 83 ± 0.9%
activity at 0.03 µM [2, 13]: 86 ± 1%
activity at 0.03 µM [2, 14]: 77 ± 0.6%
activity at 0.03 µM [2, 15]: 115 ± 12.9%
activity at 0.1 µM [2, 12]: 68 ± 1.5%
activity at 0.1 µM [2, 13]: 68 ± 1.2%
activity at 0.1 µM [2, 14]: 63 ± 0.8%
activity at 0.1 µM [2, 15]: 93 ± 5.5%
activity at 0.3 µM [2, 12]: 62 ± 0.8%
activity at 0.3 µM [2, 13]: 61 ± 0.9%
activity at 0.3 µM [2, 14]: 56 ± 0.8%
activity at 0.3 µM [2, 15]: 129 ± 10.9%
effect on APD90 (in words) ([2]; both FM and MM monolayers, concentration not given): significantly decreased
